Test results taken from patent US7273885B2, “Inhibitors of serine proteases, particularly HCV NS3-NS4A protease” (Vertex Pharmaceuticals Incorporated, priority 2002, dated 2007).
pIC50, pKi: −log10 of the molar value.

How the values were obtained:
[1] = target: HCV NS3-NS4A protease (tNS3 with KK4A) (Hepatitis C virus genotype 1a, UniProt P27958); experiment: HCV Ki assay (HPLC microbore separation of 5AB substrate and products); assay type: biochemical
Procedure: HPLC Microbore Method for Separation of 5AB Substrate and Products
• Substrate: • NH2-Glu-Asp-Val-Val-(alpha)Abu-Cys-Ser-Met-Ser-Tyr-COOH
A stock solution of 20 mM 5AB (or concentration of your choice) was made in DMSO w/ 0.2M DTT. This was stored in aliquots at −20 C.
Buffer: 50 mM HEPES, pH 7.8; 20% glycerol; 100 mM NaCl
Total assay volume was 100 μL
The buffer, KK4A, DTT, and tNS3 were combined; distributed 78 μL each into wells of 96 well plate. This was incubated at 30 C for ˜5–10 min.
2.5 μL of appropriate concentration of test compound was dissolved in DMSO (DMSO only for control) and added to each well. This was incubated at room temperature for 15 min.
Initiated reaction by addition of 20 μL of 250 μM 5AB substrate (25 μM concentration is equivalent or slightly lower than the Km for 5AB).
Incubated for 20 min at 30 C.
Terminated reaction by addition of 25 μL of 10% TFA
Transferred 120 μL aliquots to HPLC vials
Separated SMSY product from substrate and KK4A by the following method:
Microbore Separation Method:
Instrumentation: Agilent 1100
• Degasser G1322A • Binary pump G1312A • Autosampler G1313A • Column thermostated chamber G1316A • Diode array detector G1315A Column:
Phenomenex Jupiter; 5 micron C18; 300 angstroms; 150×2 mm; P/O 00F-4053-B0 • Column thermostat: 40 C • Injection volume: 100 μL • Solvent A=HPLC grade water+0.1% TFA • Solvent B=HPLC grade acetonitrile+0.1% TFA
• Stop time: 17 min • Post-run time: 10 min.

[2] = system: Cells containing hepatitis C virus (HCV) replicon; experiment: HCV replicon cell assay (Taqman RT-PCR of HCV RNA); assay type: cell-based; details: 50% inhibition of HCV RNA level, 48-hour incubation, HCV replicon cells, read-out: IC50
Procedure: HCV Replicon Cell Assay Protocol
Cells containing hepatitis C virus (HCV) replicon were maintained in DMEM containing 10% fetal bovine serum (FBS), 0.25 mg per ml of G418, with appropriate supplements (media A).
On day 1, replicon cell monolayer was treated with a trypsin:EDTA mixture, removed, and then media A was diluted into a final concentration of 100,000 cells per ml wit. 10,000 cells in 100 ul were plated into each well of a 96-well tissue culture plate, and cultured overnight in a tissue culture incubator at 37° C.
On day 2, compounds (in 100% DMSO) were serially diluted into DMEM containing 2% FBS, 0.5% DMSO, with appropriate supplements (media B). The final concentration of DMSO was maintained at 0.5% throughout the dilution series.
Media on the replicon cell monolayer was removed, and then media B containing various concentrations of compounds was added. Media B without any compound was added to other wells as no compound controls.
Cells were incubated with compound or 0.5% DMSO in media B for 48 hours in a tissue culture incubator at 37° C. At the end of the 48-hour incubation, the media was removed, and the replicon cell monolayer was washed once with PBS and stored at −80° C. prior to RNA extraction.
Culture plates with treated replicon cell monolayers were thawed, and a fixed amount of another RNA virus, such as Bovine Viral Diarrhea Virus (BVDV) was added to cells in each well. RNA extraction reagents (such as reagents from RNeasy kits) were added to the cells immediately to avoid degradation of RNA. Total RNA was extracted according the instruction of manufacturer with modification to improve extraction efficiency and consistency. Finally, total cellular RNA, including HCV replicon RNA, was eluted and stored at −80° C. until further processing.
A Taqman real-time RT-PCR quantification assay was set up with two sets of specific primers and probe. One was for HCV and the other was for BVDV. Total RNA extractants from treated HCV replicon cells was added to the PCR reactions for quantification of both HCV and BVDV RNA in the same PCR well. Experimental failure was flagged and rejected based on the level of BVDV RNA in each well. The level of HCV RNA in each well was calculated according to a standard curve run in the same PCR plate. The percentage of inhibition or decrease of HCV RNA level due to compound treatment was calculated using the DMSO or no compound control as 0% of inhibition. The IC50 (concentration at which 50% inhibition of HCV RNA level is observed) was calculated from the titration curve of any given compound.

HCV NS3-NS4A protease (tNS3 with KK4A), sequence (P27958 1027-1208): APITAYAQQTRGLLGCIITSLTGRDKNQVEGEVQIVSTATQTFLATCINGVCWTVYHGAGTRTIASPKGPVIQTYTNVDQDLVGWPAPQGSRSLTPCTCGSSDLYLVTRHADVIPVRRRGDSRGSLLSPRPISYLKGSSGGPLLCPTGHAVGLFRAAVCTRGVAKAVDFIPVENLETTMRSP

CCC[C@H](NC(=O)[C@@H]1C[C@@H]2CCCC[C@@H]2N1C(=O)[C@@H](NC(=O)[C@@H](NC(=O)c1cnccn1)C1CCCCC1)C(C)(C)C)C(=O)C(=O)N[C@@H]1CCOC1 [Compound 47a]
pKi [1]: 6.00 to 6.30
pIC50 [2]: 5.30 to 6.00

C=CCNC(=O)C(=O)[C@H](CCC)NC(=O)[C@@H]1C[C@@H]2CCCC[C@@H]2N1C(=O)[C@@H](NC(=O)[C@@H](NC(=O)c1cnccn1)C1CCCCC1)C(C)(C)C [Compound 51a]
pKi [1]: > 6.30
pIC50 [2]: 6.00 to 6.30

CCC[C@H](NC(=O)[C@@H]1C[C@@H]2CCCC[C@@H]2N1C(=O)[C@@H](NC(=O)[C@@H](NC(=O)c1[nH]c(C)c(C(C)=O)c1C#N)C1CCCCC1)C(C)(C)C)C(=O)C(=O)NC1CC1 [Compound 52a]
pKi [1]: > 6.30
pIC50 [2]: > 6.30

CCC[C@H](NC(=O)[C@@H]1C[C@@H]2CCCC[C@@H]2N1C(=O)[C@@H](NC(=O)[C@@H](NC(=O)c1[nH]c(C)c(C(C)=O)c1-c1ccccc1)C1CCCCC1)C(C)(C)C)C(=O)C(=O)NC1CC1 [Compound 53a]
pKi [1]: > 6.30
pIC50 [2]: > 6.30

CCC[C@@H](NC(=O)[C@@H]1C[C@@H]2CCCC[C@@H]2N1C(=O)[C@@H](NC(=O)[C@@H](NC(=O)c1cnccn1)C1CCCCC1)C(C)(C)C)C(=O)C(=O)NC1CC1 [Compound 60a]
pKi [1]: 5.30 to 6.00
pIC50 [2]: 5.30 to 6.00

CC(=O)c1c(C(=O)N[C@H](C(=O)N[C@H](C(=O)N2[C@H](C(=O)N[C@@H](CC(F)F)C(=O)C(=O)NC3CC3)C[C@@H]3CCCC[C@@H]32)C(C)(C)C)C2CCCCC2)[nH]c(C)c1C [Compound 61a]
pKi [1]: > 6.30
pIC50 [2]: > 6.30

CCC[C@H](NC(=O)[C@@H]1[C@@H](C2CCCCC2)CCN1C(=O)[C@@H](NC(=O)[C@@H](NC(=O)c1[nH]c(C)c(C)c1C(C)=O)C1CCCCC1)C(C)(C)C)C(=O)C(=O)NC1CC1 [Compound 63]
pKi [1]: > 6.30
pIC50 [2]: 6.00 to 6.30

CCC[C@H](NC(=O)[C@@H]1[C@@H](C(C)C)CCN1C(=O)[C@@H](NC(=O)[C@@H](NC(=O)c1[nH]c(C)c(C)c1C(C)=O)C1CCCCC1)C(C)(C)C)C(=O)C(=O)NC1CC1 [Compound 64]
pKi [1]: > 6.30
pIC50 [2]: > 6.30

CCC[C@H](NC(=O)[C@@H]1[C@H]2CC[C@H](C2)N1C(=O)[C@@H](NC(=O)[C@@H](NC(=O)c1[nH]c(C)c(C)c1C(C)=O)C1CCCCC1)C(C)(C)C)C(=O)C(=O)NC1CC1 [Compound 65]
pKi [1]: > 6.30
pIC50 [2]: > 6.30

CCC[C@H](NC(=O)[C@@H]1C[C@@H](Oc2ncc(Cl)cn2)CN1C(=O)[C@@H](NC(=O)[C@@H](NC(=O)c1[nH]c(C)c(C)c1C(C)=O)C1CCCCC1)C(C)(C)C)C(=O)C(=O)NC1CC1 [Compound 67]
pKi [1]: > 6.30
pIC50 [2]: > 6.30

CCC[C@H](NC(=O)[C@@H]1[C@H]2CCC[C@H]2CN1C(=O)[C@@H](NC(=O)[C@@H](NC(=O)c1[nH]c(C)c(C)c1C(C)=O)C1CCCCC1)C(C)(C)C)C(=O)C(=O)NC1CC1 [Compound 68]
pKi [1]: > 6.30
pIC50 [2]: > 6.30
